The values below come from ChEMBL document CHEMBL3352025, “Evaluation of the neuroprotective activity of stansin 6, a resin glycoside from Ipomoea stans” (Bioorg Med Chem Lett, 2014).

The test system of data set [1] is Rattus norvegicus. The data set is described as follows: Decrease in astrocyte reactivity in kainic acid-induced rat brain inCA3 region at 10 mg/kg, ip by GFAP staining. It counts as functional, organism-based. Also on record: dose 10 mg/kg.
For data set [2], the system named is Rattus norvegicus. The data set is described as follows: Anticonvulsant activity in rat assessed as protection against kainic acid-induced death at 10 mg/kg, ip. It counts as functional, organism-based. Also on record: dose 10 mg/kg.
For data set [3], the system named is Rattus norvegicus. Briefly: Neuroprotective activity in kainic acid-induced rat assessed as decrease in hippocampal neuronal loss at 10 mg/kg, ip. It counts as functional, organism-based. More on the design: dose 10 mg/kg.
The subject of data set [4] is Rattus norvegicus. The data set is described as follows: Reduction in TNFalpha in kainic acid-induced rat brain at 10 mg/kg, ip. More on the design: dose 10 mg/kg. It counts as functional, organism-based.
Data set [5] concerns Rattus norvegicus. Briefly: Anticonvulsant activity in rat assessed as protection against kainic acid-induced convulsions at 10 mg/kg, ip. It counts as functional, organism-based. Also on record: dose 10 mg/kg.
Data set [6] concerns Rattus norvegicus. Briefly: Anticonvulsant activity in rat assessed as protection against kainic acid-induced seizures in denate gyrus at 10 mg/kg, ip. It counts as functional, organism-based. Also on record: dose 10 mg/kg.
In data set [7] the test system is Rattus norvegicus. The data set is described as follows: Reduction in degeneration pattern in kainic acid-induced rat brain inCA3 region at 10 mg/kg, ip by GFAP staining. Also on record: dose 10 mg/kg. It counts as functional, organism-based.
Data set [8] concerns Rattus norvegicus. The data set is described as follows: Toxicity in rat assessed as hippocampal damage at 10 to 80 mg/kg, ip. It counts as organism-based, Hippocampus. More on the design: dose 10-80 mg/kg, route intraperitoneal. The note with it: in vivo.
The test system of data set [9] is Rattus norvegicus. Briefly: Toxicity in rat assessed as seizures at 10 to 80 mg/kg, ip. The note with it: in vivo. It counts as organism-based. Also on record: dose 10-80 mg/kg, route intraperitoneal.
The test system of data set [10] is Rattus norvegicus. Briefly: Toxicity in rat assessed as convulsions at 10 to 80 mg/kg, ip. Conditions: in vivo. Also on record: dose 10-80 mg/kg, route intraperitoneal. It counts as organism-based.
In data set [11] the test system is Rattus norvegicus. Briefly: Reduction in IL-1beta in kainic acid-induced rat brain at 10 mg/kg, ip. More on the design: dose 10 mg/kg. It counts as functional, organism-based.

Activity calls are given as the source filed them. The rule behind the calls is not given here.

As to `CCCCC[C@H]1CCCCCCCCCC(=O)O[C@@H]2[C@@H](O[C@@H]3O[C@H](C)[C@@H](OC(=O)[C@@H](C)CC)[C@H](O)[C@H]3O)[C@H](C)O[C@@H](O[C@H]3[C@H](O[C@H]4[C@H](O1)O[C@H](C)[C@@H](O)[C@@H]4O)O[C@H](COC(=O)[C@H](C)[C@@H](C)O)[C@@H](O)[C@@H]3O)[C@@H]2OC(=O)[C@@H](C)CC` [ORIZABIN XX], the outcome in the data set on Rattus norvegicus [1], in the data set with Rattus norvegicus [2], in the data set on Rattus norvegicus [3], in the data set with Rattus norvegicus [4], in the data set on Rattus norvegicus [6] and in the data set on Rattus norvegicus [7] was Active. The outcome in the data set with Rattus norvegicus [11] was Active. The inhibition result in the data set with Rattus norvegicus [5] was “Active”. The Activity entry in the data set with Rattus norvegicus [8], in the data set on Rattus norvegicus [9] and with Rattus norvegicus [10] was “Non-toxic” in each case.
